Tested on: SCPMA
Assay: In-water applied weed control, transplanted paddy rice, greenhouse (Example II)
Assay type: in vivo
Method: Evaluation of in-Water Applied Herbicidal Mixtures for Weed Control in Transplanted Paddy Rice
Weed seeds or nutlets of the desired test plant species were planted in puddled soil (mud) prepared by mixing a shredded, non-sterilized mineral soil (50.5 percent silt, 25.5 percent clay, and 24 percent sand, with a pH of about 7.6 and an organic matter content of about 2.9 percent) and water at a 1:1 volumetric ratio. The prepared mud was dispensed in 365 mL aliquots into 16-ounce (oz.) non-perforated plastic pots with a surface area of 86.59 square centimeters (cm^2) leaving a headspace of 3 centimeters (cm) in each pot. Mud was allowed to dry overnight prior to planting or transplanting. Rice seeds were planted in Sun Gro MetroMix® 306 planting mixture, which typically has a pH of 6.0 to 6.8 and an organic matter content of about 30 percent, in plastic plug trays. Seedlings at the second or third leaf stage of growth were transplanted into 840 mL of mud contained in 32-oz. non-perforated plastic pots with a surface area of 86.59 cm^2 4 days prior to herbicide application. The paddy was created by filling the headspace of the pots with 2.5 to 3 cm of water. When required to ensure good germination and healthy plants, a fungicide treatment and/or other chemical or physical treatment was applied. The plants were grown for 4-22 days in a greenhouse with an approximate 14 h photoperiod which was maintained at about 29′C during the day and 26° C. during the night. Nutrients were added as Osmocote® (19:6:12, N:P:K+ minor nutrients) at 2 g per 16-oz. pot and 4 g per 32-oz. pot. Water was added on a regular basis to maintain the paddy flood, and supplemental lighting was provided with overhead metal halide 1000-Watt lamps as necessary. The plants were employed for testing when they reached the first through fourth true leaf stage.
Treatments consisted of the acid or esters of 4-amino-3-chloro-5-fluoro-6-(4-chloro-2-fluoro-3-methoxy-phenyl)pyridine-2-carboxylic acid (compound A) each formulated as an SC (suspension concentrate) and various herbicidal components alone and in combination. Forms of compound A were applied on an acid equivalent basis.
Other herbicidal components were applied on an active ingredient basis and included 4-hydroxyphenyl pyruvate dioxygenase (HPPD)-inhibiting herbicides mesotrione formulated as Callisto®, sulcotrione formulated as Mikado®, pyrazolynate formulated as Sunbird® 10% GR, and benzobicyclon formulated as Benzobicyclon 3.5% or technical material.
Treatment requirements for each compound or herbicidal component were calculated based upon the rates being tested, the concentration of active ingredient or acid equivalent in the formulation, an application volume of 2 mL per component per pot, and an application area of 86.59 cm^2 per pot.
For formulated compounds, a measured amount was placed in an individual 100 or 200 mL glass vial and was dissolved in a volume of 1.25% (v/v) Agri-Dex® crop oil concentrate to obtain application solutions.
For technical grade compounds, a weighed amount was placed in an individual 100 to 200 mL glass vial and was dissolved in a volume of acetone to obtain concentrated stock solutions. […] The concentrated stock solutions obtained were diluted with an equivalent volume of an aqueous mixture containing 2.5% (v/v) crop oil concentrate so that the final application solutions contained 1.25% (v/v) crop oil concentrate.
Applications were made by injecting with a pipetter appropriate amounts of the application solutions, individually and sequentially, into the aqueous layer of the paddy. Control plants were treated in the same manner with the solvent blank. Applications were made so that all treated plant material received the same concentrations of acetone and crop oil concentrate.
The treated plants and control plants were placed in a greenhouse as described above and water was added as needed to maintain a paddy flood. […]

Measured: Visual Weed Control (%) - 21 DAA SCPMA Obs

COc1c(Cl)ccc(-c2nc(C(=O)OCc3ccccc3)c(Cl)c(N)c2F)c1F [Compound A Benzyl Ester, benzyl ester of 4-amino-3-chloro-5-fluoro-6-(4-chloro-2-fluoro-3-methoxy-phenyl)pyridine-2-carboxylic acid]
0%: 4.38 gae/ha | 8 gae/ha | 8.75 gae/ha | 16 gae/ha | 17.5 gae/ha | 32 gae/ha | 48 gae/ha | 96 gae/ha

COc1c(Cl)ccc(-c2nc(C(=O)O)c(Cl)c(N)c2F)c1F [Compound A Acid, 4-amino-3-chloro-6-(4-chloro-2-fluoro-3-methoxyphenyl)-5-fluoropyridine-2-carboxylic acid]
0%: 8.75 gae/ha | 17.5 gae/ha | 35 gae/ha

— US8841233B2, “Herbicidal compositions comprising 4-amino-3-chloro-5-fluoro-6-(4-chloro-2-fluoro-3-methoxyphenyl) pyridine-2-carboxylic acid or a derivative thereof and 4-hydroxyphenyl-pyruvate dioxygenase (HPPD) inhibitors” (Dow Agrosciences LLC, priority 2012, dated 2014)
